According to publication PMC7753147, “High-throughput determination of protein affinities using unmodified peptide libraries in nanomolar scale” (iScience, 2020):

Legend:
gephE = test: µSPOT peptide microarray binding assay with recombinant gephE
native geph = test: µSPOT peptide microarray binding assay with native geph from mouse brain lysate
Procedure: Preparation of Mouse Tissue Lysates
Whole mouse brains were obtained from C57BL/6J mice at >4 weeks of age and 80 immediately flash frozen in liquid N2. Tissue of mRFP-gephyrin knock-in animals of 1 year of age (provided by Christian Specht, IBENS, Paris) was processed the same way. Before lysis, whole mouse brains were weighted and cut into four pieces along the coronal and sagittal axis. For preparation of one lysate, two diagonally opposite pieces were transferred into a 1.5 mL reaction tube (Sarsted). Lysis was carried out on ice in 400 µL RIPA lysis buffer (150 mM 85 NaCl, 50 mM Tris-HCl (pH=8), 1% Nonident P-40 substitute, 0.5% DOC, 0.1% SDS (all v/v)), to which Ethylenediaminetetraacetic acid (5 mM end concentration) and 1 mini tablet of ROCHE complete protease inhibitor per 10 mL was added immediately before use, by hand crushing the brain material with a hand pestle in a 1.5 mL reaction tube. Lysis was completed by 1 min sonification on ice with a Sartorius Labsonic M Sonificator at 20% amplitude with 90 care to avoid heating the suspensions. Finally, Lysates were centrifuged for 15 min at 17,200×g and 4 °C. The SN was subsequently collected, transferred to a new 1.5 mL reaction tube, flash frozen in liquid N2 and stored at -80 °C until use.
95 µSPOT slides were blocked by incubation with 2.5 mL 2% (w/v) IGG free bovine serum

FL-geph = test: µSPOT peptide microarray binding assay with full-length geph
[1] = µSPOT peptide microarray, GlyRβ full positional scan, recombinant gephE, intensity normalised to wild-type sequence DLRSNDFSIVGSLPR (=1)
[2] = µSPOT peptide microarray, GlyRβ full positional scan, native geph from mouse brain lysate, intensity normalised to wild-type sequence DLRSNDFSIVGSLPR (=1)
[3] = µSPOT peptide microarray, GlyRβ full positional scan, intensity normalised to wild-type sequence DLRSNDFSIVGSLPR (=1)
[4] = µSPOT full positional scan of GlyRβ 15-mer DLRSNDFSIVGSLPR, intensity normalised to wild-type sequence (= 1)
[5] = µSPOT full positional scan of GlyRβ 15-mer DLRSNDFSIVGSLPR, native geph, intensity normalised to wild-type sequence (= 1)

| Sequence | gephE Binding Intensity [norm.] (gephE; [1]) | Native geph Binding Intensity [norm.] (native geph; [2]) | Fl-geph Binding Intensity [norm.] (FL-geph; [3]) | gephE Binding Intensity [norm.] (gephE; [4]) | Native geph Binding Intensity [norm.] (native geph; [5]) | Fl-geph Binding Intensity [norm.] (FL-geph; [4]) |
| --- | --- | --- | --- | --- | --- | --- |
| DLRSNKFSIVGSLPR [GlyRβ_Full_Positional_Scan_114] | 0.8 | 0.37 | 0.98 |  |  |  |
| DLRCNDFSIVGSLPR [GlyRβ_Full_Positional_Scan_077] | 0.99 | 0.77 | 0.65 |  |  |  |
| DLRSNDFSIVGSRPR [GlyRβ_Full_Positional_Scan_252] |  |  |  | 0.84 | 0.38 | 1.07 |
| DLRSNDFSIVCSLPR [GlyRβ_Full_Positional_Scan_217, GlyR β 414-428 variant G424C] |  |  |  | 0.43 | 0.23 | 0.45 |
| DLRPNDFSIVGSLPR [GlyRβ_Full_Positional_Scan_065] | 0.89 | 0.71 | 0.64 |  |  |  |
| DLRSNRFSIVGSLPR [GlyRβ_Full_Positional_Scan_112] | 0.84 | 0.36 | 0.86 |  |  |  |
| DLRSYDFSIVGSLPR [GlyRβ_Full_Positional_Scan_089] | 0.89 | 0.68 | 0.76 |  |  |  |
| DLRSNDFSIWGSLPR [GlyRβ_Full_Positional_Scan_188, GlyR β 414-428 variant V423W] | 0.68 | 0.27 | 0.62 |  |  |  |
| DLRSTDFSIVGSLPR [GlyRβ_Full_Positional_Scan_096] | 1.06 | 0.73 | 0.78 |  |  |  |
| DLRSNDFSIVGQLPR [GlyRβ_Full_Positional_Scan_240] |  |  |  | 0.84 | 1.4 | 1.12 |
| DLRSQDFSIVGSLPR [GlyRβ_Full_Positional_Scan_100] | 0.96 | 0.97 | 1.01 |  |  |  |
| DLRSNDRSIVGSLPR [GlyRβ_Full_Positional_Scan_132, GlyR β 414-428 variant F420R] | 0.63 | 0.41 | 0.77 |  |  |  |
| DLISNDFSIVGSLPR [GlyRβ_Full_Positional_Scan_043] | 0.9 | 1.69 | 1.35 |  |  |  |
| DLRTNDFSIVGSLPR [GlyRβ_Full_Positional_Scan_076] | 0.93 | 1.12 | 1.09 |  |  |  |
| DLRSNDFCIVGSLPR [GlyRβ_Full_Positional_Scan_157, GlyR β 414-428 variant S421C] | 0.66 | 0.36 | 0.71 |  |  |  |
| DLRSNHFSIVGSLPR [GlyRβ_Full_Positional_Scan_113] | 0.86 | 0.48 | 0.85 |  |  |  |
| DLRSNDFSIKGSLPR [GlyRβ_Full_Positional_Scan_194, GlyR β 414-428 variant V423K] | 0.5 | 0.16 | 0.63 |  |  |  |
| DLRSWDFSIVGSLPR [GlyRβ_Full_Positional_Scan_088] | 0.86 | 0.47 | 0.66 |  |  |  |
| DLRNNDFSIVGSLPR [GlyRβ_Full_Positional_Scan_079] | 0.92 | 0.88 | 0.99 |  |  |  |
| DLRSNDFSYVGSLPR [GlyRβ_Full_Positional_Scan_169, GlyR β 414-428 variant I422Y] | 0.69 | 0.48 | 0.84 |  |  |  |
| DLRSNDFSIVGSLPL [GlyRβ_Full_Positional_Scan_284] |  |  |  | 1.05 | 1.11 | 1.05 |
| DLGSNDFSIVGSLPR [GlyRβ_Full_Positional_Scan_042] | 0.93 | 1.26 | 1.02 |  |  |  |
